Reference: PubChem BioAssay AID1918957 (Molecular Pharmacology Branch, DTP, NCI, 2023)
pIC50: −log10 of the molar value.

System: NCI-H1876 complex spheroid viability
Assay: Anticancer human tumor NCI-H1876 cell line growth inhibition [LSD1];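 note: spheroids exposed to compounds for one week before readout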;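 for viability, T/C: 100% = DMSO vehicle-treated spheroids so lower means fewer viable cells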
Conditions: for pIC50: curve of first compound; for viability, T/C: stronger effect = lower value
Source text: Multicellular complex tumor spheroid response to LSD1 Inhibitor Iadademstat in combination with a variety of drugs and investigational agents in selected tumor cell lines
The current study was undertaken to assess response to LSD1 inhibitors in combination with standard-of-care drugs and investigational agents in solid tumor complex spheroid models as well as in the K-562 leukemia. Complex spheroids include a stromal component modeled by human endothelial cells (HUVEC) and fibroblasts modeled by human mesenchymal stem cells (MSCs). The concentration ranges selected for each drug and investigational agent were based upon clinically achievable concentrations if the clinical Cmax of the agent was known.
Compounds. The drugs and investigational agents used in this study are listed on Table 1. All of the agents used, including staurosporine (NSC755774) and gemcitabine (NSC613327), were obtained from the Developmental Therapeutics Program, NCI. FDA-approved anticancer drugs are available from the NCI at http://dtp.nci.nih.gov/branches/dscb/oncology_drugset_explanation.html. Drugs and investigational agents were >95% pure by proton nuclear magnetic resonance (NMR) and liquid chromatography/mass spectrometry (LC/MS). Stock solutions were prepared at 400x in DMSO, stored at -70 degrees C, and diluted in fresh medium prior to their use. The final concentration of DMSO in cell culture wells never exceeded 0.25% (v/v). The FDA-approved anticancer drug set is available from the Developmental Therapeutics Program at https://dtp.cancer.gov/organization/dscb/obtaining/available_plates.htm. All drugs and investigational agents were tested over a range starting from a high concentration at or near the clinical Cmax and decreasing in half-log increments. If the clinical Cmax for an agent had not been determined, the highest concentration tested was 10 microM.
Cell Lines. The patient-derived cancer cell (PDC) lines: 292921-168-R-J2-PDC, K24384-001-R-PDC, and 521955-158-R2-J5-PDC pancreatic carcinomas, 556581-035-R-J1 ovarian carcinoma, 324938-238-R-J1-PDC, 855422-203-R-J1-PDC and 883617-216-R-J1-PDC urothelial bladder carcinomas, 743489-274-T-PDC renal cell carcinoma, 138582-R-J1 Merkel cell tumor, K60290-347-R-J1 and K57222-313-R-J1-PDC glioblastomas, 653999-131-R-J2-PDC, LG0703-F948-PDC, and 349418-098-R-PDC non-small cell lung carcinomas, 885512-296-R-J2-PDC, 171881-019-R-J1-PDC breast carcinomas and 186277-243-T-J2-PDC and 233499-124-R-J2-PDC colon carcinomas were obtained from the NCI Patient-Derived Models Repository (PDMR, https://pdmr.cancer.gov). The established cell lines NCI/ADR-RES (RRID:CVCL_14520 and OVCAR-5 (RRID:CVCL_1628) ovarian carcinomas, 786-O (RRID:CVCL_1051) and A498 (RRID:CVCL_A498) renal cell carcinoma, NCI-H211 (ATCC, cat. CRL-5824; RRID:CVCL_1529), NCI-H196 (ATCC, cat. CRL-5823, RRID:CVCL_1509), SW 1271 (ATCC, cat. CRL-2177, RRID:CVCL_1716) and NCI-H1876 (ATCC, cat. CRL-5902, RRID:CVCL_1503) small cell lung carcinomas, MDA-MB-231 (RRID:CVCL_0062) and MDA-MB-468 (RRID:CVCL_0419)breast carcinomas (10-12). Pooled donor human umbilical vein endothelial cells (HUVEC, Lonza, cat. CC-2519) and human mesenchymal stem cells (hMSC, Lonza, cat. PT-2501) were purchased from Lonza (Walkersville, MD).
Cell Culture. All cells were maintained in an incubator at 37 degrees C and 5% CO2 with 95% humidity. The PDC lines were cultured according to standard operating procedures established by the NCI PDMR (https://pdmr.cancer.gov). Briefly all PDCs were thawed and cultured in Matrigel-coated flasks prepared with a working solution of 1X Ham's F-12 nutrient mix, without supplementation (Invitrogen, Waltham, MA, cat. 11765054), 100 U/mL penicillin-streptomycin (Invitrogen, cat. 15140122), and 2.5% Matrigel (Corning Inc., Corning, NY, cat. 354248) for the first three passages. […]

[1] = second compound 0.1 µM, first compound 0.000949 µM
[2] = second compound 0.1 µM, first compound 0.003 µM
[3] = second compound 0.1 µM, first compound 0.00949 µM
[4] = second compound 0.1 µM, first compound 0.03 µM
[5] = second compound 0.1 µM, first compound 0.0949 µM
[6] = second compound 0.1 µM, first compound 0.3 µM
[7] = second compound 0.316 µM, first compound 0.000949 µM
[8] = second compound 0.316 µM, first compound 0.003 µM
[9] = second compound 0.316 µM, first compound 0.00949 µM
[10] = second compound 0.316 µM, first compound 0.03 µM
[11] = second compound 0.316 µM, first compound 0.0949 µM
[12] = second compound 0.316 µM, first compound 0.3 µM
[13] = second compound 1 µM, first compound 0.000949 µM
[14] = second compound 1 µM, first compound 0.003 µM
[15] = second compound 1 µM, first compound 0.00949 µM
[16] = second compound 1 µM, first compound 0.03 µM
[17] = second compound 1 µM, first compound 0.0949 µM
[18] = second compound 1 µM, first compound 0.3 µM
[19] = second compound 3.16 µM, first compound 0.000949 µM
[20] = second compound 3.16 µM, first compound 0.003 µM
[21] = second compound 3.16 µM, first compound 0.00949 µM
[22] = second compound 3.16 µM, first compound 0.03 µM
[23] = second compound 3.16 µM, first compound 0.0949 µM
[24] = second compound 3.16 µM, first compound 0.3 µM
[25] = second compound 10 µM, first compound 0.000949 µM
[26] = second compound 10 µM, first compound 0.003 µM
[27] = second compound 10 µM, first compound 0.00949 µM
[28] = second compound 10 µM, first compound 0.03 µM
[29] = second compound 10 µM, first compound 0.0949 µM
[30] = second compound 10 µM, first compound 0.3 µM

| Compound | pIC50 (second compound 0.1 µM) | pIC50 (second compound 0.316 µM) | pIC50 (second compound 1 µM) | pIC50 (second compound 3.16 µM) | pIC50 (second compound 10 µM) | viability, T/C [1] [%] | viability, T/C [2] [%] | viability, T/C [3] [%] | viability, T/C [4] [%] | viability, T/C [5] [%] | viability, T/C [6] [%] | viability, T/C [7] [%] | viability, T/C [8] [%] | viability, T/C [9] [%] | viability, T/C [10] [%] | viability, T/C [11] [%] | viability, T/C [12] [%] | viability, T/C [13] [%] | viability, T/C [14] [%] | viability, T/C [15] [%] | other results |
| --- | --- | --- | --- | --- | --- | --- | --- | --- | --- | --- | --- | --- | --- | --- | --- | --- | --- | --- | --- | --- | --- |
| CCc1c2c(nc3ccc(O)cc13)-c1cc3c(c(=O)n1C2)COC(=O)[C@]3(O)CC + NC1CC1c1ccc(-c2cccc(O)c2)cc1 | > 9.02 | > 9.02 | > 9.02 | > 9.02 | > 9.02 | 5.07 | 3.61 | 1.59 | 0.3 | 0.22 | 0.31 | 5.4 | 3.71 | 1.52 | 0.19 | 0.15 | 0.25 | 5.18 | 3.15 | 1.5 | viability, T/C [16]: 0.39%; viability, T/C [17]: 0.6%; viability, T/C [18]: 0.3%; viability, T/C [19]: 5.73%; viability, T/C [20]: 3.61%; viability, T/C [21]: 1.99%; viability, T/C [22]: 0.43%; viability, T/C [23]: 0.32%; viability, T/C [24]: 0.32%; viability, T/C [25]: 6.65%; viability, T/C [26]: 4.79%; viability, T/C [27]: 3.56%; viability, T/C [28]: 0.81%; viability, T/C [29]: 0.56%; viability, T/C [30]: 0.86% |
| Nc1ccn(C2OC(CO)C(O)C2(F)F)c(=O)n1 (stereo not given) + NC1CC1c1ccc(-c2cccc(O)c2)cc1 | 8.20 | 8.21 | 8.20 | 8.20 | 8.16 | 104 | 93.9 | 24.8 | 9.9 | 8.25 | 7.07 | 103 | 91.5 | 26 | 10.9 | 7.72 | 7.02 | 108 | 87.2 | 28.7 | viability, T/C [16]: 9.78%; viability, T/C [17]: 8.57%; viability, T/C [18]: 7.79%; viability, T/C [19]: 104%; viability, T/C [20]: 87%; viability, T/C [21]: 29.9%; viability, T/C [22]: 10.1%; viability, T/C [23]: 8.03%; viability, T/C [24]: 7.36%; viability, T/C [25]: 101%; viability, T/C [26]: 91.4%; viability, T/C [27]: 34%; viability, T/C [28]: 13.2%; viability, T/C [29]: 10.4%; viability, T/C [30]: 11.8% |
